Reference: patent US8895585B2, “Nicotinamide derivative or salt thereof” (FUJIFILM Corporation, priority 2010, dated 2014)

Key:
[1] = biological target: T1, glutathione S-transferase (GST)-fused full-length human Syk protein (Homo sapiens, UniProt P43405); assay: Syk enzyme assay; format: biochemical; settings: Syk enzyme assay, Test Example 1; read-out: IC50 of Syk-inhibitory activity
T1 construct: (GST)-fused full-length human Syk protein; GST (glutathione S-transferase); purchased Carna Biosciences
In short: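 IC50 values come from a time-resolved FRET readout (615 and 665 nm) of substrate phosphorylation, measured after an EDTA stop and 1 h antibody binding. The kinase reaction ran 40 min at room temperature with 27 μM ATP and 0.4 μM biotin-peptide, following a 15 min compound preincubation with baculovirus-made GST-full-length human Syk.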

[2] = tested on: THP-1 cells; assay: TNFα generation assay; format: cell-based, human; settings: Homo sapiens, THP-1, THP-1 cells; Table 22; read-out: IC50 in TNFα generation assay
In short: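 Secreted TNFα in supernatant quantified by ELISA or AlphaLISA after 7 h culture on human IgG-coated wells (10 μg/ml coating). Cells were IFN-γ-differentiated THP-1 (10 ng/ml, 2 days), exposed to compound for 30 min at room temperature before plating.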

Row | Structure (SMILES) | IC50 [1] | IC50 [2]
1 | COCCOc1cc(Nc2nc(N[C@H](C3CC3)[C@H](C)N)c(F)cc2C(N)=O)ccn1 [Example 006-431, 6-(((1R,2S)-2-amino-1-cyclopropylpropyl)amino)-5-fluoro-2-((2-(2-methoxyethoxy)pyridin-4-yl)amino)nicotinamide] | 10 to 50 nM | 65 to 130 nM
2 | COc1nccc(Nc2nc(N[C@@H]3CCCC[C@@H]3N)c(F)cc2C(N)=O)c1F [Example 006-432, 6-(((1R,2S)-2-aminocyclohexyl)amino)-5-fluoro-2-((3-fluoro-2-methoxypyridin-4-yl)amino)nicotinamide] | 10 to 50 nM | 65 to 130 nM
3 | Cc1cc(Nc2nc(N[C@H](C3CC3)[C@H](C)N)c(F)cc2C(N)=O)cnc1C [Example 006-434, 6-(((1R,2S)-2-amino-1-cyclopropylpropyl)amino)-2-((5,6-dimethylpyridin-3-yl)amino)-5-fluoronicotinamide] | 50 to 100 nM | < 65 nM
4 | COCCn1nc(C)c2cc(Nc3nc(N[C@H](CC4CC4)[C@H](C)N)c(F)cc3C(N)=O)ccc21 [Example 006-444, 6-(((2R,3S)-3-amino-1-cyclopropylbutan-2-yl)amino)-5-fluoro-2-((1-(2-methoxyethyl)-3-methyl-1H-indazol-5-yl)amino)nicotinamide] | 50 to 100 nM | 65 to 130 nM
5 | NC(=O)c1cc(F)c(N[C@@H]2CCCC[C@@H]2N)nc1Nc1cnc(-n2cccn2)c(Cl)c1 [Example 006-446, 6-(((1R,2S)-2-aminocyclohexyl)amino)-2-((5-chloro-6-(1H-pyrazol-1-yl)pyridin-3-yl)amino)-5-fluoronicotinamide] | 10 to 50 nM | 130 to 200 nM
6 | NC(=O)c1cc(F)c(N[C@@H]2CCCC[C@@H]2N)nc1Nc1cnc(-n2cccn2)c(F)c1 [Example 006-447, 6-(((1R,2S)-2-aminocyclohexyl)amino)-5-fluoro-2-((5-fluoro-6-(1H-pyrazol-1-yl)pyridin-3-yl)amino)nicotinamide] | 10 to 50 nM | 130 to 200 nM
7 | NC(=O)c1cc(F)c(N[C@@H]2CCCC[C@@H]2N)nc1Nc1cnc(-n2cccn2)c(-n2nccn2)c1 [Example 006-449, 2-((6-(1H-pyrazol-1-yl)-5-(2H-1,2,3-triazol-2-yl)pyridin-3-yl)amino)-6-(((1R,2S)-2-aminocyclohexyl)amino)-5-fluoronicotinamide] | 50 to 100 nM | 130 to 200 nM
8 | CCc1nn(CC)c2ccc(Nc3nc(N[C@@H]4CCCC[C@@H]4N)c(F)cc3C(N)=O)cc12 [Example 006-452, 6-(((1R,2S)-2-aminocyclohexyl)amino)-2-((1,3-diethyl-1H-indazol-5-yl)amino)-5-fluoronicotinamide] | < 10 nM | < 65 nM
9 | CCc1nn(CCOC)c2ccc(Nc3nc(N[C@@H]4CCCC[C@@H]4N)c(F)cc3C(N)=O)cc12 [Example 006-453, 6-(((1R,2S)-2-aminocyclohexyl)amino)-2-((3-ethyl-1-(2-methoxyethyl)-1H-indazol-5-yl)amino)-5-fluoronicotinamide] | < 10 nM | < 65 nM
10 | CCc1nn(CCF)c2ccc(Nc3nc(N[C@@H]4CCCC[C@@H]4N)c(F)cc3C(N)=O)cc12 [Example 006-454, 6-(((1R,2S)-2-aminocyclohexyl)amino)-2-((3-ethyl-1-(2-fluoroethyl)-1H-indazol-5-yl)amino)-5-fluoronicotinamide] | < 10 nM | 65 to 130 nM
11 | CCc1nn(CC(F)F)c2ccc(Nc3nc(N[C@@H]4CCCC[C@@H]4N)c(F)cc3C(N)=O)cc12 [Example 006-455, 6-(((1R,2S)-2-aminocyclohexyl)amino)-2-((1-(2,2-difluoroethyl)-3-ethyl-1H-indazol-5-yl)amino)-5-fluoronicotinamide] | < 10 nM | 65 to 130 nM
12 | CCCc1nn(C)c2ccc(Nc3nc(N[C@@H]4CCCC[C@@H]4N)c(F)cc3C(N)=O)cc12 [Example 006-456, 6-(((1R,2S)-2-aminocyclohexyl)amino)-5-fluoro-2-((1-methyl-3-propyl-1H-indazol-5-yl)amino)nicotinamide] | < 10 nM | 130 to 200 nM
13 | CCCc1nn(CC)c2ccc(Nc3nc(N[C@@H]4CCCC[C@@H]4N)c(F)cc3C(N)=O)cc12 [Example 006-457, 6-(((1R,2S)-2-aminocyclohexyl)amino)-2-((1-ethyl-3-propyl-1H-indazol-5-yl)amino)-5-fluoronicotinamide] | < 10 nM | 130 to 200 nM
14 | CCCc1nn(CCOC)c2ccc(Nc3nc(N[C@@H]4CCCC[C@@H]4N)c(F)cc3C(N)=O)cc12 [Example 006-458, 6-(((1R,2S)-2-aminocyclohexyl)amino)-5-fluoro-2-((1-(2-methoxyethyl)-3-propyl-1H-indazol-5-yl)amino)nicotinamide] | < 10 nM | 130 to 200 nM
15 | CCCc1nn(CCF)c2ccc(Nc3nc(N[C@@H]4CCCC[C@@H]4N)c(F)cc3C(N)=O)cc12 [Example 006-459, 6-(((1R,2S)-2-aminocyclohexyl)amino)-5-fluoro-2-((1-(2-fluoroethyl)-3-propyl-1H-indazol-5-yl)amino)nicotinamide] | < 10 nM | 65 to 130 nM
16 | CCCc1nn(CC(F)F)c2ccc(Nc3nc(N[C@@H]4CCCC[C@@H]4N)c(F)cc3C(N)=O)cc12 [Example 006-460, 6-(((1R,2S)-2-aminocyclohexyl)amino)-2-((1-(2,2-difluoroethyl)-3-propyl-1H-indazol-5-yl)amino)-5-fluoronicotinamide] | < 10 nM | 65 to 130 nM
17 | CC(C)c1nn(C)c2ccc(Nc3nc(N[C@@H]4CCCC[C@@H]4N)c(F)cc3C(N)=O)cc12 [Example 006-461, 6-(((1R,2S)-2-aminocyclohexyl)amino)-5-fluoro-2-((3-isopropyl-1-methyl-1H-indazol-5-yl)amino)nicotinamide] | < 10 nM | 65 to 130 nM

Further lines, results first:

Row | IC50 [1] | IC50 [2] | Structure (SMILES)
18 | < 10 nM | 65 to 130 nM | CC[C@@H](Nc1nc(Nc2ccc3c(cnn3CCF)c2)c(C(N)=O)cc1F)[C@H](C)N [Example 006-416, 6-(((2S,3R)-2-aminopentan-3-yl)amino)-5-fluoro-2-((1-(2-fluoroethyl)-1H-indazol-5-yl)amino)nicotinamide]
19 | < 10 nM | 65 to 130 nM | CCC[C@@H](Nc1nc(Nc2ccc3c(cnn3CCF)c2)c(C(N)=O)cc1F)[C@H](C)N [Example 006-417, 6-(((2S,3R)-2-aminohexan-3-yl)amino)-5-fluoro-2-((1-(2-fluoroethyl)-1H-indazol-5-yl)amino)nicotinamide]
20 | < 10 nM | 65 to 130 nM | CCCC[C@@H](Nc1nc(Nc2ccc3c(cnn3CCF)c2)c(C(N)=O)cc1F)[C@H](C)N [Example 006-418, 6-(((2S,3R)-2-aminoheptan-3-yl)amino)-5-fluoro-2-((1-(2-fluoroethyl)-1H-indazol-5-yl)amino)nicotinamide]
21 | < 10 nM | 65 to 130 nM | C[C@H](N)[C@@H](CC1CC1)Nc1nc(Nc2ccc3c(cnn3CCF)c2)c(C(N)=O)cc1F [Example 006-420, 6-(((2R,3S)-3-amino-1-cyclopropylbutan-2-yl)amino)-5-fluoro-2-((1-(2-fluoroethyl)-1H-indazol-5-yl)amino)nicotinamide]
22 | < 10 nM | 65 to 130 nM | COc1cc(Nc2nc(N[C@H](C3CC3)[C@H](C)N)c(F)cc2C(N)=O)cc(OC)n1 [Example 006-429, 6-(((1R,2S)-2-amino-1-cyclopropylpropyl)amino)-2-((2,6-dimethoxypyridin-4-yl)amino)-5-fluoronicotinamide]
23 | < 10 nM | 65 to 130 nM | COc1cc(Nc2nc(N[C@H](C3CC3)[C@H](C)N)c(F)cc2C(N)=O)ccn1 [Example 006-430, 6-(((1R,2S)-2-amino-1-cyclopropylpropyl)amino)-5-fluoro-2-((2-methoxypyridin-4-yl)amino)nicotinamide]
24 | < 10 nM | 65 to 130 nM | Cc1cc(Nc2nc(N[C@H](CC3CC3)[C@H](C)N)c(F)cc2C(N)=O)cnc1C [Example 006-435, 6-(((2R,3S)-3-amino-1-cyclopropylbutan-2-yl)amino)-2-((5,6-dimethylpyridin-3-yl)amino)-5-fluoronicotinamide]
25 | < 10 nM | < 65 nM | Cc1nn(C)c2ccc(Nc3nc(N[C@H](CC4CC4)[C@H](C)N)c(F)cc3C(N)=O)cc12 [Example 006-442, 6-(((2R,3S)-3-amino-1-cyclopropylbutan-2-yl)amino)-2-((1,3-dimethyl-1H-indazol-5-yl)amino)-5-fluoronicotinamide]
26 | < 10 nM | 65 to 130 nM | CCn1nc(C)c2cc(Nc3nc(N[C@H](CC4CC4)[C@H](C)N)c(F)cc3C(N)=O)ccc21 [Example 006-443, 6-(((2R,3S)-3-amino-1-cyclopropylbutan-2-yl)amino)-2-((1-ethyl-3-methyl-1H-indazol-5-yl)amino)-5-fluoronicotinamide]
27 | < 10 nM | 65 to 130 nM | Cc1nn(CC(F)F)c2ccc(Nc3nc(N[C@H](CC4CC4)[C@H](C)N)c(F)cc3C(N)=O)cc12 [Example 006-445, 6-(((2R,3S)-3-amino-1-cyclopropylbutan-2-yl)amino)-2-((1-(2,2-difluoroethyl)-3-methyl-1H-indazol-5-yl)amino)-5-fluoronicotinamide]
28 | < 10 nM | < 65 nM | CCc1nn(C)c2ccc(Nc3nc(N[C@@H]4CCCC[C@@H]4N)c(F)cc3C(N)=O)cc12 [Example 006-451, 6-(((1R,2S)-2-aminocyclohexyl)amino)-2-((3-ethyl-1-methyl-1H-indazol-5-yl)amino)-5-fluoronicotinamide]
